Active and inactive are the calls of the source. The calls are words filed in the database; no cut-off is given here.
Experiments:
RAW264.7 [1] = test: Inhibition of LPS-induced COX2 protein expression in mouse RAW264.7 cells at 20 uM after 24 hrs by Western blotting; format: functional, cell-based
RAW264.7 [2] = test: Antiinflammatory activity in mouse RAW264.7 cells assessed as inhibition of LPS-induced nitric oxide production at 30 uM after 24 hrs; format: functional, cell-based
RAW264.7 [3] = test: Antiinflammatory activity in mouse RAW264.7 cells assessed as inhibition of LPS-induced nitric oxide production at 10 uM after 24 hrs; format: functional, cell-based
RAW264.7 [4] = test: Inhibition of LPS-induced COX2 gene expression in mouse RAW264.7 cells at 20 uM after 24 hrs by RT-PCR; format: functional, cell-based
RAW264.7 [5] = test: Inhibition of LPS-induced iNOS protein expression in mouse RAW264.7 cells at 20 uM after 24 hrs by Western blotting; format: functional, cell-based
RAW264.7 [6] = test: Inhibition of LPS-induced COX2 protein expression in mouse RAW264.7 cells at 5 uM after 24 hrs by Western blotting; format: functional, cell-based
RAW264.7 [7] = test: Inhibition of LPS-induced iNOS protein expression in mouse RAW264.7 cells at 5 uM after 24 hrs by Western blotting; format: functional, cell-based
RAW264.7 [8] = test: Inhibition of LPS-induced iNOS gene expression in mouse RAW264.7 cells at 20 uM after 24 hrs by RT-PCR; format: functional, cell-based
RAW264.7 [9] = test: Cytotoxicity against mouse RAW264.7 cells at 30 uM by MTT assay; format: cell-based; conditions: raw264.7, 30 µM

Compound	Activity (RAW264.7 [1])	Activity (RAW264.7 [2])	Activity (RAW264.7 [3])	Activity (RAW264.7 [4])	Activity (RAW264.7 [5])	Activity (RAW264.7 [6])	Activity (RAW264.7 [7])	Activity (RAW264.7 [8])	Activity (RAW264.7 [9])
COc1cc(-c2cc(=O)c3c(OC)c(OC)c(OC)c(OC)c3o2)ccc1O	Active	Active	Active	Active	Active	Active	Active	Active	Non-toxic
COc1c(OC)c(OC)c2c(=O)cc(-c3ccc(O)c(O)c3)oc2c1OC	Active	Active	Active	Active	Active	Active	Active	Active	Non-toxic
COc1ccc(-c2cc(=O)c3c(OC)c(OC)c(OC)c(OC)c3o2)cc1O	–	Active	Active	–	inactive	–	inactive	inactive	Non-toxic
COc1ccc(-c2cc(=O)c3c(OC)c(OC)c(OC)c(OC)c3o2)cc1OC [NOBILETIN]	–	inactive	inactive	–	–	–	–	–	Non-toxic

From ChEMBL document CHEMBL1139771, “Anti-inflammatory property of the urinary metabolites of nobiletin in mouse” (Bioorg Med Chem Lett, 2007)
